{"source": "paper PMC9705314", "about": "“Characterization of a new potent and long-lasting single chain peptide agonist of RXFP1 in cells and in vivo translational models” (Scientific Reports, 2022)", "type_in_all_cases": "cell-based", "key": {"RXFP1 [1]": {"target": "T1, RXFP1 (Homo sapiens, UniProt Q9HBX9)", "T1 sequence (Q9HBX9 1-757)": "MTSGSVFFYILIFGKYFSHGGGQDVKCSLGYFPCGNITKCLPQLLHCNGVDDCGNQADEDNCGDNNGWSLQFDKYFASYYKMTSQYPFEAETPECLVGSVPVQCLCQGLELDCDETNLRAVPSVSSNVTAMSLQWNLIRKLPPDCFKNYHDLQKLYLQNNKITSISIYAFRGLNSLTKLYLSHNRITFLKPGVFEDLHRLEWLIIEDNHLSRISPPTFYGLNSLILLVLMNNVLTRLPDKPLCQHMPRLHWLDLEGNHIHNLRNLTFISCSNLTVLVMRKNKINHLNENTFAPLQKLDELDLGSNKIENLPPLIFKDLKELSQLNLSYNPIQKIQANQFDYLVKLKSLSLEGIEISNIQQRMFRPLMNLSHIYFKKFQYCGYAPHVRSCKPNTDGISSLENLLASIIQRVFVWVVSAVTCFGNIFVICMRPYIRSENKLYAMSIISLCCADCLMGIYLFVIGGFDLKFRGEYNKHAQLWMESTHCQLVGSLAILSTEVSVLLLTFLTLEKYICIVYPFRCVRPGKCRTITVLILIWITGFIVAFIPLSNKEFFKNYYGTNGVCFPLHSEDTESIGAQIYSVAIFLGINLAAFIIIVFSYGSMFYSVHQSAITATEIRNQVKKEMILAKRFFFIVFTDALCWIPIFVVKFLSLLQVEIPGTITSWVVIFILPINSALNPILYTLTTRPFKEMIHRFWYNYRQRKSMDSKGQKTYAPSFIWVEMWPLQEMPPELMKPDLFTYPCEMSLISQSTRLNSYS", "assay": "cAMP production in HEK_RXFP1 cells", "design": "expressed in transfected cells", "details": "HEK_RXFP1 cells (wild type construct), n = 4 experiments in duplicate"}, "RXFP1 [2]": {"target": "T1, RXFP1", "assay": "xCELLigence real time impedance in EA.hy926_RXFP1 cells", "design": "expressed in transfected cells; host or cells: EA.hy926 (ATCC CRL-2922), lentiviral transduction, puromycin selection", "details": "10 nM, over 10 h", "protocol": "Cell impedance assays in both wild type EA.hy926 and EA.hy926_RXFP1 cell lines were performed using a MP RCTA xCELLigence Analyzer (ACEA Biosciences) on E-Plates. 20,000 cells/well were seeded in E-plates in 200 µL of growth medium and left to settle for 30 min at room temperature. Plates were then placed into the xCELLigence RTCA MP Instrument under 5% CO2 at 37 °C and impedance was continuously measured every 15 min overnight. The next day, a 4-h serum starvation was performed using the same medium but with 0.1% FCS (impedance measurement every 5 min).\nData analysis was performed using RTCA2.0 software according to ACEA recommendations. Raw impedance expressed as cell index was normalized for each well by dividing individual Cell Index values by baseline Cell index values obtained 5 min before peptide treatment in order to obtain Normalized Cell Index (NCI): mean NCI from 4 replicates for each condition are presented."}, "hRXFP1 (S69P)": {"target": "T2, hRXFP1 (S69P) (Homo sapiens, UniProt Q9HBX9, S69P)", "T2 sequence (Q9HBX9 1-757 S69P)": "T1 sequence (Q9HBX9 1-757) with S69P", "assay": "cAMP production in HEK cells expressing hRXFP1 (S69P)", "details": "hRXFP1 S69P mutant, n = 4 experiments in duplicate", "protocol": "HEK cells were stably transduced with lentiviral constructs (Vectalys, MOI 20, batches rV2.1A1.5057 B, rV2.1A1.5056 B and rV2.1A1.5059 B) containing a bicistronic vectors encoding hRXFP1 (S69P) or hRXFP1 (F76V) or hRXFP1 (S69P/F76V) under the EF1 promoter followed by an internal ribosome entry site (IRES) elements to express the neomycin antibiotic resistance gene for selection with 500 μg/mL Geneticin (Invitrogen, #10131-019). Three days post transduction, HEK cells were grown in the presence of Genetecin. Positive individual clones were selected and amplified, and cAMP readout (nM) was used as described for other cell types at a cell density of 8000 cells/well."}}, "note": "Changes are numbered by the printed parent chain."}
{"substance": "relaxin", "values": [{"measurement": "cAMP activity", "setting": "RXFP1 [1]", "result": "activity was in the same range"}, {"measurement": "kinetics and shape of the RXFP1 activation signal (impedance)", "setting": "RXFP1 [2]", "result": "superimposable responses"}, {"measurement": "cAMP response (efficacy)", "setting": "hRXFP1 (S69P)", "result": "reduced in all RXFP1 mutants compared to the wild type construct"}]}
